Patent US9409905B2, “Antibacterial compounds and methods for use” (PTC THERAPEUTICS, INC., priority 2011, dated 2016)
In brackets after ≈: the same amount, converted by molar mass.

What was measured:
[1] = test system: Pseudomonas aeruginosa (P. aeruginosa) 27853; assay: Antibacterial activity, MIC (Table 5); format: cell-based; settings: P. aeruginosa 27853, read-out: MIC, 27853
Method in brief: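 Compounds are serially diluted in broth and inoculated with the organism. Growth is then inspected macroscopically, and the lowest concentration showing none is taken as the MIC (μg/mL).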

[2] = test system: Klebsiella pneumoniae (K. pneumoniae) 35657; assay: Antibacterial activity, MIC (Table 4); format: cell-based; settings: K. pneumoniae 35657, read-out: MIC, 35657
Method in brief: (§1)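 MIC in μg/mL by microbroth dilution, scored as the lowest level that suppresses visible growth.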

[3] = test system: Acinetobacter baumannii (A. baumannii) BAA747; assay: Antibacterial activity, MIC (Table 4); format: cell-based; settings: A. baumannii BAA747, read-out: MIC, BAA747
Method in brief: as §1

E. coli LZ3111 = assay: Antibacterial activity, MIC, quinolone resistant strain (Table 2); format: cell-based; settings: Escherichia coli, LZ3111, read-out: MIC LZ3111
Method in brief: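 Strain carries mutations conferring high-level quinolone resistance; tested by microbroth dilution, MIC recorded in μg/mL as lowest concentration preventing visible growth.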

A. baumannii MXX2240 = assay: Antibacterial activity, MIC, resistant strain (Table 4); format: cell-based; settings: Acinetobacter baumannii, MXX2240; resistant A. baumannii MMX2240, multi-drug resistant clinical isolate; read-out: MIC, MMX2240
Method in brief: as §1

K. pneumoniae MXX1232 = assay: as above; format: cell-based; settings: Klebsiella pneumoniae, MXX1232; resistant K. pneumoniae MMX1232, multi-drug resistant clinical isolate; read-out: MIC, MMX1232
Method in brief: as §1

[4] = test system: Staphylococcus aureus (S. aureus) 29213; assay: Antibacterial activity, microbroth dilution MIC (Table 1); format: cell-based; settings: microbroth dilution, Gram-positive S. aureus 29213, read-out: MIC, 29213
Method in brief: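 Microbroth dilution was used. MIC, in μg/mL, is the lowest drug concentration preventing macroscopically visible growth under the test conditions.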

[5] = test system: Escherichia coli (E. coli) BAS849; assay: as above; format: cell-based; settings: microbroth dilution, super sensitive Gram-negative E. coli BAS849, read-out: MIC, BAS849
Method in brief: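 Potency is reported as minimum inhibitory concentration in μg/mL, determined by broth microdilution as the lowest level of compound that stops growth visible to the eye.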

E. coli 25922 = assay: as above; format: cell-based, Escherichia coli; settings: Escherichia coli; microbroth dilution; control Gram-negative E. coli 25922 strain; read-out: MIC, 25922
Method in brief: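 Values are MICs (μg/mL): the smallest drug amount at which macroscopically visible bacterial growth is absent under assay conditions, from a microdilution method in broth.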

Row | Compound | MIC [1] [µg/mL] | MIC [2] [µg/mL] | MIC [3] [µg/mL] | MIC (E. coli LZ3111) [µg/mL] | MIC (A. baumannii MXX2240) [µg/mL] | MIC (K. pneumoniae MXX1232) [µg/mL] | MIC [4] [µg/mL] | MIC [5] [µg/mL] | MIC (E. coli 25922) [µg/mL]
1 | CCc1c(-c2ccc3c(ccn3-c3ccc(F)cc3)c2)[nH]c(=O)c(C(=O)O)c1O [Cpd 438, 5-ethyl-6-(1-(4-fluorophenyl)-1H-indol-5-yl)-4-hydroxy-2-oxo-1,2-dihydropyridine-3-carboxylic acid] | 12.5 to 150 (≈ 31.9 to 382 µM) | 12.5 to 150 (≈ 31.9 to 382 µM) | 12.5 to 150 (≈ 31.9 to 382 µM) | 12.5 to 150 (≈ 31.9 to 382 µM) | 12.5 to 150 (≈ 31.9 to 382 µM) | 12.5 to 150 (≈ 31.9 to 382 µM) | < 1 | < 1 | 12.5 to 150 (≈ 31.9 to 382 µM)
2 | CCc1c(-c2ccc3c(c2)[nH]c2ccccc23)[nH]c(=O)c(C(=O)O)c1O [Cpd 432, 6-(9H-carbazol-2-yl)-5-ethyl-4-hydroxy-2-oxo-1,2-dihydropyridine-3-carboxylic acid] | 12.5 to 150 (≈ 35.9 to 431 µM) | 3.5 to 12.5 (≈ 10 to 35.9 µM) | 1 to 3.5 (≈ 2.87 to 10 µM) | 12.5 to 150 (≈ 35.9 to 431 µM) | 12.5 to 150 (≈ 35.9 to 431 µM) | 12.5 to 150 (≈ 35.9 to 431 µM) | < 1 | < 1 | 3.5 to 12.5 (≈ 10 to 35.9 µM)
3 | CN(C)Cc1cc2cc(-c3[nH]c(=O)c(C(=O)O)c(O)c3C3CC3)ccc2n1C [Cpd 322, 5-cyclopropyl-6-(2-((dimethylamino)methyl)-1-methyl-1H-indol-5-yl)-4-hydroxy-2-oxo-1,2-dihydropyridine-3-carboxylic acid] | 12.5 to 150 (≈ 32.8 to 393 µM) | 12.5 to 150 (≈ 32.8 to 393 µM) | 12.5 to 150 (≈ 32.8 to 393 µM) | 12.5 to 150 (≈ 32.8 to 393 µM) | 12.5 to 150 (≈ 32.8 to 393 µM) | 12.5 to 150 (≈ 32.8 to 393 µM) | 12.5 to 150 (≈ 32.8 to 393 µM) | 1 to 3.5 (≈ 2.62 to 9.18 µM) | 12.5 to 150 (≈ 32.8 to 393 µM)
4 | Cc1c(-c2ccc3c(c2)cc(CNCC(C)C)n3C)[nH]c(=O)c(C(=O)O)c1O [Cpd 353, 4-hydroxy-6-(2-((isobutylamino)methyl)-1-methyl-1H-indol-5-yl)-5-methyl-2-oxo-1,2-dihydropyridine-3-carboxylic acid] | 12.5 to 150 (≈ 32.6 to 391 µM) | 3.5 to 12.5 (≈ 9.13 to 32.6 µM) | 3.5 to 12.5 (≈ 9.13 to 32.6 µM) | 1 to 3.5 (≈ 2.61 to 9.13 µM) | < 1 | 12.5 to 150 (≈ 32.6 to 391 µM) | 12.5 to 150 (≈ 32.6 to 391 µM) | < 1 | 3.5 to 12.5 (≈ 9.13 to 32.6 µM)
5 | CCC(C)NCc1cc2cc(-c3[nH]c(=O)c(C(=O)O)c(O)c3C)ccc2n1C (stereo not drawn) [Cpd 347, 6-(2-((sec-butylamino)methyl)-1-methyl-1H-indol-5-yl)-4-hydroxy-5-methyl-2-oxo-1,2-dihydropyridine-3-carboxylic acid] | 12.5 to 150 (≈ 32.6 to 391 µM) | 1 to 3.5 (≈ 2.61 to 9.13 µM) | < 1 | 1 to 3.5 (≈ 2.61 to 9.13 µM) | < 1 | 12.5 to 150 (≈ 32.6 to 391 µM) | 12.5 to 150 (≈ 32.6 to 391 µM) | < 1 | 3.5 to 12.5 (≈ 9.13 to 32.6 µM)
6 | Cc1c(-c2ccc3cn[nH]c3c2)[nH]c(=O)c(C(=O)O)c1O [Cpd 399, 4-hydroxy-6-(1H-indazol-6-yl)-5-methyl-2-oxo-1,2-dihydropyridine-3-carboxylic acid] | 12.5 to 150 (≈ 43.8 to 526 µM) | 12.5 to 150 (≈ 43.8 to 526 µM) | 12.5 to 150 (≈ 43.8 to 526 µM) | 12.5 to 150 (≈ 43.8 to 526 µM) | 12.5 to 150 (≈ 43.8 to 526 µM) | 12.5 to 150 (≈ 43.8 to 526 µM) | 12.5 to 150 (≈ 43.8 to 526 µM) | 12.5 to 150 (≈ 43.8 to 526 µM) | 12.5 to 150 (≈ 43.8 to 526 µM)
7 | CCc1c(-c2ccc3c(ccn3-c3cccc(N4CCCC4)c3)c2)[nH]c(=O)c(C(=O)O)c1O [Cpd 439, 5-ethyl-4-hydroxy-2-oxo-6-(1-(3-(pyrrolidin-1-yl)phenyl)-1H-indol-5-yl)-1,2-dihydropyridine-3-carboxylic acid] | 12.5 to 150 (≈ 28.2 to 338 µM) | 12.5 to 150 (≈ 28.2 to 338 µM) | 12.5 to 150 (≈ 28.2 to 338 µM) | 12.5 to 150 (≈ 28.2 to 338 µM) | 12.5 to 150 (≈ 28.2 to 338 µM) | 12.5 to 150 (≈ 28.2 to 338 µM) | 3.5 to 12.5 (≈ 7.89 to 28.2 µM) | 1 to 3.5 (≈ 2.25 to 7.89 µM) | 12.5 to 150 (≈ 28.2 to 338 µM)
8 | CCc1ccc2c(c1)cc(-c1[nH]c(=O)c(C(=O)O)c(O)c1CC)n2C [Cpd 407, 5-ethyl-6-(5-ethyl-1-methyl-1H-indol-2-yl)-4-hydroxy-2-oxo-1,2-dihydropyridine-3-carboxylic acid] | 12.5 to 150 (≈ 36.7 to 441 µM) | 12.5 to 150 (≈ 36.7 to 441 µM) | 12.5 to 150 (≈ 36.7 to 441 µM) | 12.5 to 150 (≈ 36.7 to 441 µM) | 12.5 to 150 (≈ 36.7 to 441 µM) | 12.5 to 150 (≈ 36.7 to 441 µM) | 1 to 3.5 (≈ 2.94 to 10.3 µM) | 1 to 3.5 (≈ 2.94 to 10.3 µM) | 12.5 to 150 (≈ 36.7 to 441 µM)
9 | Cc1c(-c2cccc3c2ccn3C)[nH]c(=O)c(C(=O)O)c1O [Cpd 404, 4-hydroxy-5-methyl-6-(1-methyl-1H-indol-4-yl)-2-oxo-1,2-dihydropyridine-3-carboxylic acid] | 12.5 to 150 (≈ 41.9 to 503 µM) | 12.5 to 150 (≈ 41.9 to 503 µM) | 12.5 to 150 (≈ 41.9 to 503 µM) | 12.5 to 150 (≈ 41.9 to 503 µM) | 12.5 to 150 (≈ 41.9 to 503 µM) | 12.5 to 150 (≈ 41.9 to 503 µM) | 12.5 to 150 (≈ 41.9 to 503 µM) | 3.5 to 12.5 (≈ 11.7 to 41.9 µM) | 12.5 to 150 (≈ 41.9 to 503 µM)
